# Assays:
# [1] = system: tobacco mosaic virus (TMV); assay: Anti-TMV in vitro effect (half-leaf soaking); assay type: cell-based, tobacco mosaic virus (host Nicotiana tabacum L.cv.Xanthi NN); settings: for inhibition at 100 µg/mL / inhibition at 500 µg/mL: Tobacco mosaic virus, read-out: Relative inhibition rate (%) In vitro activity
# [2] = system: tobacco mosaic virus (TMV); assay: Anti-TMV in vivo inactivation; design: species or system tobacco mosaic virus (host Nicotiana tabacum L.cv.Xanthi NN); settings: for inhibition at 100 µg/mL / inhibition at 500 µg/mL: Tobacco mosaic virus, read-out: Relative inhibition rate (%) In vivo inactivation
# [3] = system: tobacco mosaic virus (TMV); assay: Anti-TMV in vivo therapeutic effect; design: species or system tobacco mosaic virus (host Nicotiana tabacum L.cv.Xanthi NN); settings: for inhibition at 100 µg/mL / inhibition at 500 µg/mL: Tobacco mosaic virus, read-out: Relative inhibition rate (%) In vivo therapy
# [4] = system: tobacco mosaic virus (TMV); assay: Anti-TMV in vivo protective effect; design: species or system tobacco mosaic virus (host Nicotiana tabacum L.cv.Xanthi NN); settings: for inhibition at 100 µg/mL / inhibition at 500 µg/mL: Tobacco mosaic virus, read-out: Relative inhibition rate (%) In vivo protection
# cucumber fusarium wilt = assay: Fungicidal (bactericidal) activity in vitro, PDA colony diameter; assay type: cell-based; settings: 50 mg/kg; for inhibition of growth at 50 mg/kg: Fusarium, 96 h
# Cercospora arachidicola = assay: as above; assay type: cell-based; settings: 50 mg/kg; for inhibition of growth at 50 mg/kg: Mycosphaerella arachidis, 96 h
# Macrophoma kawatsukai = assay: as above; assay type: cell-based; settings: 50 mg/kg
# Alternaria solani = assay: as above; assay type: cell-based; settings: 50 mg/kg; for inhibition of growth at 50 mg/kg: Alternaria solani, 96 h
# Fusarium graminearumt = assay: microbe, parasite or virus in culture; assay type: cell-based; settings: for inhibition of growth at 50 mg/kg: Fusarium, 96 h, read-out: Bactericidal activity (%) Fusarium graminearumt
# potato late blight = assay: microbe, parasite or virus in culture; assay type: cell-based; settings: for inhibition of growth at 50 mg/kg: Phytophthora infestans, 96 h, read-out: Bactericidal activity (%) potato late blight
# Sclerotinia scleotiorum = assay: Fungicidal (bactericidal) activity in vitro, PDA colony diameter; assay type: cell-based; settings: 50 mg/kg; for inhibition of growth at 50 mg/kg: Sclerotinia, 96 h
# Botrytis cinerea = assay: as above; assay type: cell-based; settings: 50 mg/kg; for inhibition of growth at 50 mg/kg: Botrytis cinerea, 96 h
# Rhizoctonia solani = assay: as above; assay type: cell-based; settings: 50 mg/kg; for inhibition of growth at 50 mg/kg: Rhizoctonia solani, 96 h
# Phytophthora capsici = assay: as above; assay type: cell-based; settings: 50 mg/kg; for inhibition of growth at 50 mg/kg: Phytophthora capsici, 96 h
# Fusarium fujikuroi = assay: as above; assay type: cell-based; settings: 50 mg/kg; for inhibition of growth at 50 mg/kg: Fusarium fujikuroi, 96 h
# Rhizoctonia cereali = assay: as above; assay type: cell-based; settings: 50 mg/kg; for inhibition of growth at 50 mg/kg: Rhizoctonia, 96 h
# Bipolaria maydis = assay: organism not typed; assay type: cell-based; settings: for inhibition at 50 mg/kg: read-out: Bactericidal activity (%) Bipolaria maydis
# [5] = system: Colletotrichum orbiculare; assay: Fungicidal (bactericidal) activity in vitro, PDA colony diameter; assay type: cell-based; settings: 50 mg/kg; for inhibition of growth at 50 mg/kg: Colletotrichum orbiculare, 96 h
# armyworms = assay type: in vivo; settings: concentration 600 mg/kg
# cotton bollworms = assay: whole plant or invertebrate; settings: for mortality at 600 mg/kg: Helicoverpa armigera, in Gossypium hirsutum, read-out: Cotton bollworm Mortality (%)
# Procedure: Experimental method of cotton bollworms: feed and drug mixing method: measure 3 mL of prepared solution and add it to about 27 g of newly prepared feed, thereby obtaining needed concentration through dilution by 10 times.
# mosquito larvae = assay: whole plant or invertebrate; settings: for mortality at 5 mg/kg / mortality at 10 mg/kg: Culex pipiens, read-out: Mosquito larvae Mortality (%)
# Procedure, shortened: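 Compound dissolved in acetone (or other solvent) to a 1000 ppm stock and diluted in water to 5 ppm. Ten Culex pipiens pallens larvae at the start of the fourth instar, laboratory-reared, added per beaker; solvent-only aqueous control.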
# corn borers [6] = assay: whole plant or invertebrate; settings: read-out: Corn borer Mortality (%)
# corn borers [7] = settings: concentration 600 mg/kg
compound,measurement,setting,value
Cc1nccc2c1[nH]c1cc(O)ccc12 [Harmol],inhibition at 100 µg/mL,[1],0%
same,inhibition at 500 µg/mL,[1],32.6%
same,inhibition at 100 µg/mL,[2],0%
same,inhibition at 500 µg/mL,[2],35.1%
same,inhibition at 100 µg/mL,[3],0%
same,inhibition at 500 µg/mL,[3],30%
same,inhibition at 100 µg/mL,[4],9.5%
same,inhibition at 500 µg/mL,[4],36.7%
same,inhibition of growth at 50 mg/kg,cucumber fusarium wilt,26.9%
same,inhibition of growth at 50 mg/kg,Cercospora arachidicola,46.2%
same,inhibition at 50 mg/kg,Macrophoma kawatsukai,23.8%
same,inhibition of growth at 50 mg/kg,Alternaria solani,26.3%
same,inhibition of growth at 50 mg/kg,Fusarium graminearumt,23.8%
same,inhibition of growth at 50 mg/kg,potato late blight,22.7%
same,inhibition of growth at 50 mg/kg,Sclerotinia scleotiorum,5.9%
same,inhibition of growth at 50 mg/kg,Botrytis cinerea,9.1%
same,inhibition of growth at 50 mg/kg,Rhizoctonia solani,50%
same,inhibition of growth at 50 mg/kg,Phytophthora capsici,25%
same,inhibition of growth at 50 mg/kg,Fusarium fujikuroi,28.6%
same,inhibition of growth at 50 mg/kg,Rhizoctonia cereali,42.1%
same,inhibition at 50 mg/kg,Bipolaria maydis,31.8%
same,inhibition of growth at 50 mg/kg,[5],46.4%
same,Armyworm Mortality (%),armyworms,50%
same,mortality at 600 mg/kg,cotton bollworms,20%
same,mortality at 5 mg/kg,mosquito larvae; 24 h,30%
same,mortality at 10 mg/kg,mosquito larvae; 24 h,100%
same,mortality at 600 mg/kg,corn borers [6],45%
Cc1nccc2c1[nH]c1ccc([N+](=O)[O-])cc12 [Ia-3],inhibition at 100 µg/mL,[1]; treatment dose 100 μg/mL,0%
same,inhibition at 500 µg/mL,[1]; treatment dose 500 μg/mL,15.7%
same,inhibition at 100 µg/mL,[2]; treatment dose 100 μg/mL,0%
same,inhibition at 500 µg/mL,[2]; treatment dose 500 μg/mL,21.5%
same,inhibition at 100 µg/mL,[3]; treatment dose 100 μg/mL,0%
same,inhibition at 500 µg/mL,[3]; treatment dose 500 μg/mL,18.5%
same,inhibition at 100 µg/mL,[4]; treatment dose 100 μg/mL,0%
same,inhibition at 500 µg/mL,[4]; treatment dose 500 μg/mL,26.1%
same,inhibition of growth at 50 mg/kg,cucumber fusarium wilt,23.8%
same,inhibition of growth at 50 mg/kg,Cercospora arachidicola,7.1%
same,inhibition at 50 mg/kg,Macrophoma kawatsukai,35.3%
same,inhibition of growth at 50 mg/kg,Alternaria solani,33.3%
same,inhibition of growth at 50 mg/kg,Fusarium graminearumt,50%
same,inhibition of growth at 50 mg/kg,potato late blight,25%
same,inhibition of growth at 50 mg/kg,Sclerotinia scleotiorum,56%
same,inhibition of growth at 50 mg/kg,Botrytis cinerea,54.6%
same,inhibition of growth at 50 mg/kg,Rhizoctonia solani,10.7%
same,inhibition of growth at 50 mg/kg,Phytophthora capsici,36.4%
same,inhibition of growth at 50 mg/kg,Fusarium fujikuroi,42.9%
same,inhibition of growth at 50 mg/kg,Rhizoctonia cereali,59.4%
same,inhibition at 50 mg/kg,Bipolaria maydis,31.6%
same,inhibition of growth at 50 mg/kg,[5],23.8%
same,Armyworm Mortality (%),armyworms,50%
same,mortality at 600 mg/kg,cotton bollworms,35%
same,mortality at 5 mg/kg,mosquito larvae; 24 h,60%
same,mortality at 10 mg/kg,mosquito larvae; 24 h,100%
same,activity against culex pipiens larvae (in words),mosquito larvae; at 5 mg/kg,still show high activity
same,mortality at 600 mg/kg,corn borers [6],50%
"CCCCCC(=O)NNC(=O)[C@@H]1Cc2c([nH]c3ccccc23)[C@H](C)N1 [Id-5, (1S, 3S)—N′—N-Hexanoyl-1-methyl-2,3,4,9-tetrahydropyridino [3,4-b] indol-3-formylhydrazine]",Relative inhibition rate (%) In vitro activity,[1]; treatment dose 100 μg/mL,0%
same,Relative inhibition rate (%) In vitro activity,[1]; treatment dose 500 μg/mL,32.1%
same,Relative inhibition rate (%) In vivo inactivation,[2]; treatment dose 100 μg/mL,0%
same,Relative inhibition rate (%) In vivo inactivation,[2]; treatment dose 500 μg/mL,31.5%
same,Relative inhibition rate (%) In vivo therapy,[3]; treatment dose 100 μg/mL,0%
same,Relative inhibition rate (%) In vivo therapy,[3]; treatment dose 500 μg/mL,27.3%
same,Relative inhibition rate (%) In vivo protection,[4]; treatment dose 100 μg/mL,0%
same,Relative inhibition rate (%) In vivo protection,[4]; treatment dose 500 μg/mL,30.9%
same,Bactericidal activity (%) Cucumber fusarium wilt,cucumber fusarium wilt,22.7%
same,Bactericidal activity (%) Cercospora arachidicola,Cercospora arachidicola,45.5%
same,Bactericidal activity (%) Macrophoma kawatsukai,Macrophoma kawatsukai,63.6%
same,Bactericidal activity (%) Alternaria solani,Alternaria solani,23.8%
same,Bactericidal activity (%) Fusarium graminearumt,Fusarium graminearumt; 50 mg/kg,46.2%
same,Bactericidal activity (%) potato late blight,potato late blight,26.1%
same,Bactericidal activity (%) Sclerotinia scleotiorum,Sclerotinia scleotiorum,26.9%
same,Bactericidal activity (%) Botrytis cinerea,Botrytis cinerea,66.7%
same,Bactericidal activity (%) Rhizoctonia solani,Rhizoctonia solani,1.4%
same,Bactericidal activity (%) Phytophthora capsici,Phytophthora capsici,21.2%
same,Bactericidal activity (%) Fusarium fujikuroi,Fusarium fujikuroi,29.4%
same,Bactericidal activity (%) Rhizoctonia cereali,Rhizoctonia cereali,29.7%
same,Bactericidal activity (%) Bipolaria maydis,Bipolaria maydis; 50 mg/kg,32.0%
same,Bactericidal activity (%) Colletotrichum orbiculare,[5],28.0%
same,Armyworm Mortality (%),armyworms,5%
same,Cotton bollworm Mortality (%),cotton bollworms; concentration 600 mg/kg,30%
same,Mosquito larvae Mortality (%),"mosquito larvae; concentration 10 mg/kg, 24 h",10%
same,Corn borer Mortality (%),corn borers [7],25%
COc1ccc2c3c([nH]c2c1)C(C)NCC3 (stereo not drawn) [Tetrahydroharmine],inhibition at 100 µg/mL,[1]; treatment dose 100 μg/mL,28.7%
same,inhibition at 500 µg/mL,[1]; treatment dose 500 μg/mL,58.2%
same,inhibition at 100 µg/mL,[2]; treatment dose 100 μg/mL,26.4%
same,inhibition at 500 µg/mL,[2]; treatment dose 500 μg/mL,59.8%
same,inhibition at 100 µg/mL,[3]; treatment dose 100 μg/mL,27.3%
same,inhibition at 500 µg/mL,[3]; treatment dose 500 μg/mL,55.5%
same,inhibition at 100 µg/mL,[4]; treatment dose 100 μg/mL,24.2%
same,inhibition at 500 µg/mL,[4]; treatment dose 500 μg/mL,54.6%
same,Armyworm Mortality (%),armyworms,0%
same,mortality at 600 mg/kg,cotton bollworms,10%
same,mortality at 10 mg/kg,mosquito larvae; 24 h,15%
same,mortality at 600 mg/kg,corn borers [6],0%
